# pEC50: −log10 of the molar value.
# Key:
# [1] = system: HIV-1/188-Leu; experiment: Inhibition of HIV-1 induced syncytium formation in CEM cells, RT mutant 188-Leu; format: cell-based; details: Human immunodeficiency virus 1, CCRF-CEM, 96 h
# Description: (§1) The selection and characterization of the HIV-1 RT mutant strains were done as follows: HIV-1/100-Ile ("100-Ile") was selected for resistance against TIBO R82150 as described in Balzarini et al, Virology 192: 246-253 (1993); HIV-1/103-Asn ("103-Asn") was selected for resistance against TIBO R82913 as described in Balzarini et al, Virology 192: 246-253 (1993); HIV-1/106-Ala ("106-Ala") was selected for resistance against nevirapine as described in Balzarini et al, J. Virol. 67: 5353-5359 (1993); HIV-1/Lys-138 ("ys-138") was selected for resistance against TSAO-m^3 T as described in Balzarini et al, Virology 192: 246-253 (1993) and Balzarini et al, Proc. Nat. Acad. Sci. USA 90: 6952-6956 (1993); HIV-1/181-Cys ("181-Cys") was selected for resistance against pyridinone L-697,661 as described in Balzarini et al, Virology 192: 246-253 (1993); and HIV-1/188-His ("188-His") was selected for resistance against HEPT as described in Balzarini et al, Mol. Pharmocol. 44: 694-701 (1993). 188-His was then further converted to HIV-1/188-Leu("188-Leu") upon further passage in cell culture in the absence of the HEPT. HIV-1/101-Glu ("101-Glu") and HIV-1/190-Glu ("190-Glu") were selected for resistance against the thiocarboxanilide derivative designated as UC38 as described in Balzarini et al, Antiviral Research 27: 219-236 (1995). HIV-1/184-Ile ("184-Ile") was selected for resistance against the combination of 3TC and TSAO-m^3 T as described in Balzarini et al, Molecular Pharm. 49: 882-890 (1996). HIV-1/184-Val ("184-Val") was selected for resistance against 3TC as described in Balzarini et al, Molecular Pharm. 49: 882-890 (1996).
# (§2) CEM cells were suspended at ≈300,000 cells per ml of culture medium and infected with approximately 100 CCID50 (CCID50 being the 50% cell culture infective dose) of HIV-1(IIIB) (designated as "WT" in Table 3) or one of the HIV-1 RT mutant strains described above. Then 100 μl of the infected cell suspensions was added to 200 μl microtiter plate wells containing 100 μl of appropriate serial (5-fold) dilutions of the test compounds. The inhibitiory effect of the test compounds on HIV-1 induced syncytium formation in CEM cells was examined microscopically on day 4 post infection. The 50% effective concentration (EC50) was defined as the test compound concentration that inhibits syncytium formation in the HIV-1-infected cell cultures by 50%.
# [2] = system: HIV-1/100-Ile; experiment: Inhibition of HIV-1 induced syncytium formation in CEM cells, RT mutant 100-Ile; format: cell-based; details: Human immunodeficiency virus 1, CCRF-CEM, 96 h
# Description: as §1, §2
# [3] = system: HIV-1/181-Cys; experiment: Inhibition of HIV-1 induced syncytium formation in CEM cells, RT mutant 181-Cys; format: cell-based; details: Human immunodeficiency virus 1, CCRF-CEM, 96 h
# Description: as §1, §2
# [4] = system: HIV-1/101-Glu; experiment: Inhibition of HIV-1 induced syncytium formation in CEM cells, RT mutant 101-Glu; format: cell-based; details: Human immunodeficiency virus 1, CCRF-CEM, 96 h
# Description: as §1, §2
# [5] = system: HIV-1/184-Val; experiment: Inhibition of HIV-1 induced syncytium formation in CEM cells, RT mutant 184-Val; format: cell-based; details: Human immunodeficiency virus 1, CCRF-CEM, 96 h
# Description: as §1, §2
# [6] = system: HIV-1/184-Ile; experiment: Inhibition of HIV-1 induced syncytium formation in CEM cells, RT mutant 184-Ile; format: cell-based; details: Human immunodeficiency virus 1, CCRF-CEM, 96 h
# Description: as §1, §2
# [7] = system: HIV-1/Lys-138; experiment: Inhibition of HIV-1 induced syncytium formation in CEM cells, RT mutant 138-Lys; format: cell-based; details: Human immunodeficiency virus 1, CCRF-CEM, 96 h
# Description: as §1, §2
# [8] = system: HIV-1/190-Glu; experiment: Inhibition of HIV-1 induced syncytium formation in CEM cells, RT mutant 190-Glu; format: cell-based; details: Human immunodeficiency virus 1, CCRF-CEM, 96 h
# Description: as §1, §2
# [9] = system: HIV-1/103-Asn; experiment: Inhibition of HIV-1 induced syncytium formation in CEM cells, RT mutant 103-Asn; format: cell-based; details: Human immunodeficiency virus 1, CCRF-CEM, 96 h
# Description: as §1, §2
# [10] = system: HIV-1(IIIB); experiment: Inhibition of HIV-1 induced syncytium formation in CEM cells, HIV-1(IIIB) (WT); format: cell-based; details: day 4 post infection; for pEC50: Table 2, HIV-1(IIIB), repeat values; for EC50: Table 3, WT (HIV-1(IIIB))
# Description: Cells and Viruses CEM cells were obtained from the […] (Rockville, Md.). HIV-l(IIIB) was originally obtained from the culture supernatant of persistently HIV-1-infected H9 cells and was provided by R. C. Gallo and M. Popovic (National Cancer Institute, National Institutes of Health, Bethesda, Md.).
# as §2
# [11] = system: HIV-1/106-Ala; experiment: Inhibition of HIV-1 induced syncytium formation in CEM cells, RT mutant 106-Ala; format: cell-based; details: Human immunodeficiency virus 1, CCRF-CEM, 96 h
# Description: as §1, §2
# [12] = system: HIV-1/188-His; experiment: Inhibition of HIV-1 induced syncytium formation in CEM cells, RT mutant 188-His; format: cell-based; details: Human immunodeficiency virus 1, CCRF-CEM, 96 h
# Description: as §1, §2
# [13] = system: HIV-1 strains containing the 100 Leu→Ile mutation in their RT; details: cited from earlier work
# [14] = system: 181 Tyr→Cys mutation in the RT of HIV-1 strains; details: cited from earlier work
# [15] = Human immunodeficiency virus 1, IIIB, CCRF-CEM, 96 h
SMILES,EC50 [1] [µg/mL],EC50 [2] [µg/mL],EC50 [3] [µg/mL],EC50 [4] [µg/mL],EC50 [5] [µg/mL],EC50 [6] [µg/mL],EC50 [7] [µg/mL],EC50 [8] [µg/mL],EC50 [9] [µg/mL],"pEC50 [10, 15]","EC50 [10, 15] [µg/mL]",pEC50 [10],EC50 [11] [µg/mL],EC50 [12] [µg/mL],resistance of the mutant strain to the compound [13],resistance of the mutant strain to the compound [14]
CSSC(=Nc1ccc(Cl)c(COc2ccccc2Cl)c1)c1ccoc1C [Compound 7],0.7,0.93,0.47,0.34,0.009,0.02,0.13,> 2,≥ 2,7.31,0.0075,7.27,0.55,0.65,–,–
CSSC(=Nc1ccc(Cl)c(OCCC(C)C)c1)c1ccoc1C [Compound 6],> 2,0.25,0.29,0.13,0.008,0.02,0.15,> 2,0.65,7.08,0.012,7.09,0.13,≥ 2,–,–
CC(C)=CCN1Cc2cc(Cl)cc3[nH]c(=S)n(c23)C[C@@H]1C [TIBO R82913],–,–,–,–,–,–,–,–,–,–,–,–,–,–,resistant,–
CC(C)=CCOc1cc(N=C(SN2CCOCC2)c2ccoc2C)ccc1Cl [Compound 11],–,–,–,–,–,–,–,–,–,7.79,–,7.91,–,–,–,–
Cc1ccnc2c1NC(=O)c1cccnc1N2C1CC1 [nevirapine],–,–,–,–,–,–,–,–,–,–,–,–,–,–,–,resistant
"CSSC(=Nc1ccc(Cl)c(C=NOC(C)C)c1)c1ccoc1C [Compound 5, N-[4-chloro-3-[[(1-methylethoxy)imino]-methyl]phenyl]-2-methyl-3-furancarbodithioperoxyimidic acid methyl ester]",0.95,0.25,0.18,0.13,0.0075,0.013,0.1,> 2,0.85,7.14,0.0075,7.37,0.1,0.7,–,–

# Source: patent publication US6017947A, “Heterocyclic carbodithioperoxyimidic compounds useful for the inhibition of the replication of HIV” (priority 1999, dated 2000)
